Laboratory results as given in patent US4857540A, “Dopamine-β-hydroxylase inhibitors” (SmithKline Beckman Corporation, priority 1987, dated 1989).
Where a name gives a salt, the structure may show the parent alone. Read-outs that look alike come from different tables or passages of the source. One block for each compound: values may come before it.

What was measured:
[1] = molecular target: T1, dopamine-β-hydroxylase (DBH) (Bos taurus, UniProt P15101); assay: in vitro DBH inhibition, conversion of tyramine to octopamine (absorbance at 330 nm); type: biochemical
T1 sequence (P15101 1-610): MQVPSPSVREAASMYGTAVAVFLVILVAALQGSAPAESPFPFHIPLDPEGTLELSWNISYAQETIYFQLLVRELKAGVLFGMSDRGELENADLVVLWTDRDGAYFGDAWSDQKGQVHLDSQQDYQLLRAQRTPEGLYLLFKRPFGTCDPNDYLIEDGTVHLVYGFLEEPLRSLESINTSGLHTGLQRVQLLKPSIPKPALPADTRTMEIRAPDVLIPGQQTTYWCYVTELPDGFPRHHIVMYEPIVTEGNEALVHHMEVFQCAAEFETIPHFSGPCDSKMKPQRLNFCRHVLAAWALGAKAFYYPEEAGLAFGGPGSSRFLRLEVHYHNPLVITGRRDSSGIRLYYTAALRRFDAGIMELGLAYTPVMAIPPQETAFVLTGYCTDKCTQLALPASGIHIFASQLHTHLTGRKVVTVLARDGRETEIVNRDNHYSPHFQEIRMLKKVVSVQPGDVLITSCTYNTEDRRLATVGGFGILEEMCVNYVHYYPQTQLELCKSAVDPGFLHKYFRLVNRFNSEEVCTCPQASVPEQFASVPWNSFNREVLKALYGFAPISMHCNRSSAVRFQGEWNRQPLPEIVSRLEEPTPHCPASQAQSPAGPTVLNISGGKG
Method: Compounds of the invention and other compounds useful in the method of the invention were screened for in vitro DBH inhibition by a standard procedure for assaying conversion of tyramine to octopamine in the presence of DBH. Octopamine was assayed following sodium periodate oxidation to p-hydroxybenzaldehyde by measuring spectrophotometric absorbance at 330 nm. Inhibition is given in molar concentration of compound at which DBH activity was halved (IC50). Melting points (mp) are given in °C.

[2] = molecular target: T1, dopamine-β-hydroxylase (DBH); assay: as above; type: biochemical; details: read-out: DBH inhibition, % at 10^-4 M
[3] = mean arterial blood pressure, indwelling cannulae in tail artery; type: in vivo, Spontaneously hypertensive rats; details: 50 mg/kg i.p.
Method: Further, the same rats were dosed with a suspension or solution at a dose of 50 mg/kg of test compound i.p. and mean arterial blood pressure determined with indwelling cannulae inserted into the tail artery.

[4] = system: peripheral dopamine (DA) and norepinephrine (NE) levels; assay: effects in vivo on peripheral dopamine (DA) and norepinephrine (NE) levels; set-up: species or system Spontaneously hypertensive rats; details: dosed twice about 18 hours apart, sacrificed about 2 hours after second dose, mean of 5 animals; for DA / NE: per gram of tissue
Method: Various compounds of the invention were tested for their effects in vivo on peripheral dopamine (DA) and norepinephrine (NE) levels substantially by the procedure of DaPrada and Zurcher, Life Sci., 19, 1161, (1976). Spontaneously hypertensive rats were dosed twice, the second dose being abut 18 hours after the first, and were sacrificed about 2 hours after the second dose.

[5] = Teresawa et al., Japan, Cir. J. 35, 339 (1971); cited from earlier work
[6] = in vitro, tyramine to octopamine, read-out: IC50 value (molar concentration of compound at which DBH activity was halved)

IC50 [1, 6]: 3.8 µM
SMILES: Oc1c(Cl)cc(Cn2c(S)nc3ccccc32)cc1Cl [Example 8, 1-(3,5-dichloro-4-hydroxybenzyl)-2-mercaptobenzimidazole]

inhibition at 100 µM [2]: 60%
SMILES: Sc1nc2ccccc2n1Cc1c(Cl)cccc1Cl [Example 2, 1-(2,6-dichlorobenzyl)-2-mercaptobenzimidazole]

IC50 [1, 6]: 6.2 µM
SMILES: Fc1cc(F)cc(Cn2c(S)nc3ccccc32)c1 [Example 6, 1-(3,5-difluorobenzyl)-2-mercaptobenzimidazole]
mean arterial pressure [3]: significant reduction in mean arterial pressure
DA/NE Ratio [4]: 0.086
DA [4]: 0.607 µg/g
NE [4]: 7.054 µg/g

IC50 [1, 6]: 0.66 µM
SMILES: Oc1c(F)cc(Cn2c(S)nc3ccccc32)cc1F [Example 9, 1-(3,5-difluoro-4-hydroxybenzyl)-2-mercaptobenzimidazole]

inhibition at 100 µM [2]: 6%
SMILES: COc1ccc(Cn2c(S)nc3ccccc32)cc1 [Example 7, 1-(4-methoxybenzyl)-2-mercaptobenzimidazole]

inhibition at 100 µM [2]: 70%
SMILES: Sc1nc2ccccc2n1Cc1cc(Cl)cc(Cl)c1 [Example 4, 1-(3,5-dichlorobenzyl)-2-mercaptobenzimidazole]

IC50 [1, 6]: 61 µM
SMILES: Sc1nc2ccccc2n1Cc1ccccc1 [Example 5, N-benzyl-2-mercaptobenzimidazole]

IC50 [1, 6]: 13 µM
SMILES: Oc1ccc(Cn2c(S)nc3ccccc32)cc1 [Example 10, 1-(4-hydroxybenzyl)-2-mercaptobenzimidazole]

Second part, the compound before the results:

SMILES: CCCCc1ccc(C(=O)O)nc1 [fusaric acid, reference compound]
hepatotoxicity [5]: hepatotoxic
IC50 [1]: ~0.8 µM

SMILES: NCc1nc2ccccc2n1Cc1cccc(F)c1 [Example 39, 1-[3-fluorobenzyl]-2-aminomethylbenzimidazole dihydrofluoride]
IC50 [1, 6]: 130 µM

SMILES: NCc1nc2ccccc2n1Cc1ccc(Cl)c(Cl)c1 [Example 38, 1-[3,4-Dichlorobenzyl]-2-aminomethylbenzimidazole dihydrochloride]
IC50 [1, 6]: 69 µM

SMILES: NCc1nc2ccccc2n1Cc1ccccc1 [Example 37, 1-Benzyl-2-aminomethylbenzimidazole hydrochloride]
IC50 [1, 6]: 0.12 µM

SMILES: NCc1nc2ccccc2n1Cc1cccc(Cl)c1 [Example 40, 1-[3-chlorobenzyl]-2-aminomethylbenzimidazole dihydrochloride]
IC50 [1, 6]: 113 µM

SMILES: COc1c(F)cc(Cn2c(S)nc3ccccc32)cc1F [Example 3, 1-(3,5-difluoro-4-methoxybenzyl)-2-mercaptobenzimidazole]
DA/NE Ratio [4]: 0.055
DA [4]: 0.397 µg/g
NE [4]: 7.82 µg/g
